From patent US9062033B2, “Chemical compounds” (Rottapharm Biotech S.r.l., priority 2011, dated 2015)

Experiments:
human OX1 receptors = biological target: T1, human OX1 receptors (Homo sapiens, UniProt O43613); test: Antagonistic activity against human OX1 receptor, [Ca2+]i fluorimetry (Fluo-4NW) in transfected CHO cells activated with orexin-A; format: cell-based; details: CHO cells transfected with human recombinant OX1; orexin-A 3 nM; pKb = co-logarithm of apparent dissociation constant, modified Cheng Prusoff
T1 construct: expressed in transfected cells; host or cells: CHO cells
T1 sequence (O43613 1-425): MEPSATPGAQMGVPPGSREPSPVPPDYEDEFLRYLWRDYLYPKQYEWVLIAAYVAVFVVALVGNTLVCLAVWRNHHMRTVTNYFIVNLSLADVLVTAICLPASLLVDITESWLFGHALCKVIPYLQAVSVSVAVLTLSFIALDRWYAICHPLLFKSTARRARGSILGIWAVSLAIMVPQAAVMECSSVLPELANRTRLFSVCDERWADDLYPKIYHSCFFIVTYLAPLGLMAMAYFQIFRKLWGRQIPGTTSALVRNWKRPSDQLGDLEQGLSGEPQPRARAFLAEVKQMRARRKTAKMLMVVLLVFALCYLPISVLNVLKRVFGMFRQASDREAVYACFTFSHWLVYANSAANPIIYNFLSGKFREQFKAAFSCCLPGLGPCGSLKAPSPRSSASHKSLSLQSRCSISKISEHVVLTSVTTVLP
Procedure: (§1) In a typical experiment, the antagonistic activity against human OX1 and OX2 receptors is determined by using CHO e HEK-293 cells transfected with human recombinant OX1 and OX2 receptors respectively, seeded at density of 2 and 3×10^4 cells/well respectively in a 96 fluorimetry well plate. Thus the plate was loaded with the calcium dye (Fluo-4NW/probenecid in HBSS, Hepes 20 mM, pH 7.4; Invitrogen) at 37° C. for 60 min. Afterward the temperature was equilibrated at 22° C. for 15 min and the [Ca2+]i measured directly on the plate by using a fluorescent plate reader (CellLux Perkin Elmer).
(§2) Invention compounds were dissolved in DMSO, diluted in HBSS (DMSO, 0.3% final) and added to the wells. After 5 min CHO cells were activated with orexin-A, 3 nM while HEK-293 cells were activated with orexin-B, 10 nM.
(§3) The compounds, dissolved in DMSO and diluted in the medium (DMSO, 0.3% final), have been analysed in the 1 nM-1 μM concentration range (every concentration in duplicate). The antagonistic activity has been expressed as pKb (co-logarithm of the apparent dissociation constant calculated by using the modified Cheng Prusoff equation).
(§4) The results are expressed as percent of control specific […] response ((measured specific response/control specific agonist response)×100) obtained in the presence of the test compounds.
(§5) The IC50 values (concentration causing a half-maximal inhibition of the control specific agonist response) were determinated by non-linear regression analysis of the concentration curves generated with mean replicate values using hill equation curve fitting. The IC50 values are obtained by the arithmetical mean of at least two experiments. Compounds of the following example tested according to this example gave pKbs as follows: […]

human OX2 receptors = biological target: T2, human OX2 receptors (Homo sapiens, UniProt O43614); test: Antagonistic activity against human OX2 receptor, [Ca2+]i fluorimetry (Fluo-4NW) in transfected HEK-293 cells activated with orexin-B; format: cell-based; details: HEK-293 cells transfected with human recombinant OX2; orexin-B 10 nM; pKb = co-logarithm of apparent dissociation constant, modified Cheng Prusoff
T2 construct: expressed in transfected cells; host or cells: HEK-293 cells
T2 sequence (O43614 1-444): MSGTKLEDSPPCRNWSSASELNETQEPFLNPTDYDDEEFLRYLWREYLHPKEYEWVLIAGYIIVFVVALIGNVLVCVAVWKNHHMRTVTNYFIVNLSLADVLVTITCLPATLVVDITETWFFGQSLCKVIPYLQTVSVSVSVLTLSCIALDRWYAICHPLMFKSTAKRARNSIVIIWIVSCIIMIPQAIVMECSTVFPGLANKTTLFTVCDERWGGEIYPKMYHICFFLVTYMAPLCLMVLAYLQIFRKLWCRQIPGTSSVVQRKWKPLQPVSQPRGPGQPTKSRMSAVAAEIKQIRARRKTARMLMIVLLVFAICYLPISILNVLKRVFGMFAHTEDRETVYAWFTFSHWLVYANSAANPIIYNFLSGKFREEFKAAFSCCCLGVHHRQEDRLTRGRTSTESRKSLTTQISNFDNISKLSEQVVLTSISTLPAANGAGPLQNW
Procedure: as §1, §2, §3, §4, §5

Kb (human OX1 receptors) | Kb (human OX2 receptors) | Compound
6.31 nM | 10 nM | O=C(c1cc(Cl)ccc1-c1ncccn1)N1CC2(CC2)C[C@H]1CNc1cc(Cl)c(C(F)(F)F)cn1 [Compound 1v, (S)-(5-chloro-2-(pyrimidin-2-yl)phenyl)(6-(((4-chloro-5-(trifluoromethyl)pyridin-2-yl)amino)methyl)-5-azaspiro[2.4]heptan-5-yl)methanone]
5.01 nM | 79.4 nM | Cc1nc(C(=O)N2CC3(CC3)C[C@H]2CNc2ccc(Cl)cn2)c(-c2ccccc2)s1 [Compound 2a, (S)-(6-(((5-chloropyridin-2-yl)amino)methyl)-5-azaspiro[2.4]heptan-5-yl)(2-methyl-5-phenylthiazol-4-yl)methanone]
0.794 nM | 2.51 nM | Cc1nc(C(=O)N2CC3(CC3)C[C@H]2CNc2nc3ccccc3o2)c(-c2ccccc2)s1 [Compound 2b, (S)-(6-((benzo[d]oxazol-2-ylamino)methyl)-5-azaspiro[2.4]heptan-5-yl)(2-methyl-5-phenylthiazol-4-yl)methanone]
50.1 nM | 25.1 nM | Cc1cccc(NC[C@@H]2CC3(CC3)CN2C(=O)c2nc(C)sc2-c2ccccc2)n1 [Compound 2c, (S)-(2-methyl-5-phenylthiazol-4-yl)(6-(((6-methylpyridin-2-yl)amino)methyl)-5-azaspiro[2.4]heptan-5-yl)methanone]
3.98 nM | 20 nM | Cc1nc(C(=O)N2CC3(CC3)C[C@H]2CNc2ccc(C(F)(F)F)cn2)c(-c2ccccc2)s1 [Compound 2d, (S)-(2-methyl-5-phenylthiazol-4-yl)(6-(((5-(trifluoromethyl)pyridin-2-yl)amino)methyl)-5-azaspiro[2.4]heptan-5-yl)methanone]
2.51 nM | 2.51 nM | Cc1nc(C(=O)N2CC3(CC3)C[C@H]2CNc2nccc3ccccc23)c(-c2ccccc2)s1 [Compound 2e, (S)-(6-((isoquinolin-1-ylamino)methyl)-5-azaspiro[2.4]heptan-5-yl)(2-methyl-5-phenylthiazol-4-yl)methanone]
31.6 nM | 2.51 nM | Cc1cc(C)nc(NC[C@@H]2CC3(CC3)CN2C(=O)c2nc(C)sc2-c2ccccc2)n1 [Compound 2f, (S)-(6-(((4,6-dimethylpyrimidin-2-yl)amino)methyl)-5-azaspiro[2.4]heptan-5-yl)(2-methyl-5-phenylthiazol-4-yl)methanone]
158 nM | 158 nM | Cc1nc(C(=O)N2CC3(CC3)C[C@H]2CNc2ncc(Cl)cn2)c(-c2ccccc2)s1 [Compound 2g, (S)-(6-(((5-chloropyrimidin-2-yl)amino)methyl)-5-azaspiro[2.4]heptan-5-yl)(2-methyl-5-phenylthiazol-4-yl)methanone]
3.98 nM | 6.31 nM | Cc1nc(C(=O)N2CC3(CC3)C[C@H]2CNc2nc3ccc(F)cc3s2)c(-c2ccccc2)s1 [Compound 2h, (S)-(6-(((6-fluorobenzo[d]thiazol-2-yl)amino)methyl)-5-azaspiro[2.4]heptan-5-yl)(2-methyl-5-phenylthiazol-4-yl)methanone]
12.6 nM | 31.6 nM | Cc1nc(C(=O)N2CC3(CC3)C[C@H]2CNc2nc3ccc(Cl)cc3s2)c(-c2ccccc2)s1 [Compound 2i, (S)-(6-(((6-chlorobenzo[d]thiazol-2-yl)amino)methyl)-5-azaspiro[2.4]heptan-5-yl)(2-methyl-5-phenylthiazol-4-yl)methanone]
6.31 nM | 3.16 nM | Cc1nc(C(=O)N2CC3(CC3)C[C@H]2CNc2cc(C(F)(F)F)ccn2)c(-c2ccccc2)s1 [Compound 2j, (S)-(2-methyl-5-phenylthiazol-4-yl)(6-(((4-(trifluoromethyl)pyridin-2-yl)amino)methyl)-5-azaspiro[2.4]heptan-5-yl)methanone]
15.8 nM | 2.51 nM | Cc1cc(C(F)(F)F)cc(NC[C@@H]2CC3(CC3)CN2C(=O)c2nc(C)sc2-c2ccccc2)n1 [Compound 2k, (S)-(6-(((6-methyl-4-(trifluoromethyl)pyridin-2-yl)amino)methyl)-5-azaspiro[2.4]heptan-5-yl)(2-methyl-5-phenylthiazol-4-yl)methanone]
3.98 nM | 31.6 nM | Cc1ccc(-c2ncccn2)c(C(=O)N2CC3(CC3)C[C@H]2CNc2ccc(C(F)(F)F)cn2)n1 [Compound 3a, (S)-(6-methyl-3-(pyrimidin-2-yl)pyridin-2-yl)(6-(((5-(trifluoromethyl)pyridin-2-yl)amino)methyl)-5-azaspiro[2.4]heptan-5-yl)methanone]
2.51 nM | 10 nM | Cc1ccc(-c2ccccc2)c(C(=O)N2CC3(CC3)C[C@H]2CNc2ccc(C(F)(F)F)cn2)n1 [Compound 3b, (S)-(6-methyl-3-phenylpyridin-2-yl)(6-(((5-(trifluoromethyl)pyridin-2-yl)amino)methyl)-5-azaspiro[2.4]heptan-5-yl)methanone]
6.31 nM | 39.8 nM | Cc1ccc(-c2ncccn2)c(C(=O)N2CC3(CC3)C[C@H]2CNc2ncc(Cl)cc2F)n1 [Compound 3c, (S)-(6-(((5-chloro-3-fluoropyridin-2-yl)amino)methyl)-5-azaspiro[2.4]heptan-5-yl)(6-methyl-3-(pyrimidin-2-yl)pyridin-2-yl)methanone]
3.98 nM | 10 nM | Cc1ccc(-c2ncccn2)c(C(=O)N2CC3(CC3)C[C@H]2CNc2ncc(C(F)(F)F)cc2F)n1 [Compound 3d, (S)-(6-(((3-fluoro-5-(trifluoromethyl)pyridin-2-yl)amino)methyl)-5-azaspiro[2.4]heptan-5-yl)(6-methyl-3-(pyrimidin-2-yl)pyridin-2-yl)methanone]
3.98 nM | 7.94 nM | Cc1ccc(-c2ccccc2)c(C(=O)N2CC3(CC3)C[C@H]2CNc2ncc(C(F)(F)F)cc2F)n1 [Compound 3e, (S)-(6-(((3-fluoro-5-(trifluoromethyl)pyridin-2-yl)amino)methyl)-5-azaspiro[2.4]heptan-5-yl)(6-methyl-3-phenylpyridin-2-yl)methanone]
7.94 nM | 7.94 nM | Cc1ccc(-c2ccc(F)cc2)c(C(=O)N2CC3(CC3)C[C@H]2CNc2ccc(C(F)(F)F)cn2)n1 [Compound 3f, (S)-(3-(4-fluorophenyl)-6-methylpyridin-2-yl)(6-(((5-(trifluoromethyl)pyridin-2-yl)amino)methyl)-5-azaspiro[2.4]heptan-5-yl)methanone]
5.01 nM | 10 nM | Cc1ccc(-c2ncccn2)c(C(=O)N2CC3(CC3)C[C@H]2CNc2ncc(C(F)(F)F)cc2Cl)n1 [Compound 3g, (S)-(6-(((3-chloro-5-(trifluoromethyl)pyridin-2-yl)amino)methyl)-5-azaspiro[2.4]heptan-5-yl)(6-methyl-3-(pyrimidin-2-yl)pyridin-2-yl)methanone]
6.31 nM | 39.8 nM | Cc1ccc(-c2ncccn2)c(C(=O)N2CC3(CC3)C[C@H]2CNc2cnc(C(F)(F)F)cn2)n1 [Compound 3h, (S)-(6-methyl-3-(pyrimidin-2-yl)pyridin-2-yl)(6-(((5-(trifluoromethyl)pyrazin-2-yl)amino)methyl)-5-azaspiro[2.4]heptan-5-yl)methanone]
1.26 nM | 5.01 nM | Cc1cnn(-c2ccc(C)nc2C(=O)N2CC3(CC3)C[C@H]2CNc2ccc(C(F)(F)F)cn2)c1 [Compound 3i, (S)-(6-methyl-3-(4-methyl-1H-pyrazol-1-yl)pyridin-2-yl)(6-(((5-(trifluoromethyl)pyridin-2-yl)amino)-methyl)-5-azaspiro[2.4]heptan-5-yl)methanone]
